ChEMBL document CHEMBL1158271, “Lupane derivatives from Lophopetalum wallichii with farnesyl protein transferase inhibitory activity” (J Nat Prod, 1996)
≈ marks a conversion by molar mass, not a printed value.

Tests used:
[1] = Inhibition of recombinant protein farnesyltransferase-mediated [3H]FPP transfer after 30 mins by scintillation counting
LNCaP = assay: Cytotoxicity against human LNCAP cells; assay type: functional, cell-based
Lu1 = assay: Cytotoxicity against human Lu1 cells; assay type: functional, cell-based
A-431 = assay: Cytotoxicity against human A431 cells; assay type: functional, cell-based
[2] = Cytotoxicity against human BC1 cells; assay type: functional, cell-based
SK-MEL-2 = assay: Cytotoxicity against human SK-MEL-2 cells; assay type: functional, cell-based
KB = assay: Cytotoxicity against human KB cells; assay type: functional, cell-based
Col2 = assay: Cytotoxicity against human Col2 cells; assay type: functional, cell-based
ZR-75-1 = assay: Cytotoxicity against human ZR-75-1 cells; assay type: functional, cell-based
[3] = Cytotoxicity against human KBVIN cells; assay type: functional, cell-based
HT = assay: Cytotoxicity against human HT cells; assay type: functional, cell-based
[4] = Cytotoxicity against human U373 cells; assay type: functional, cell-based, U-373MG ATCC; conditions: U373 MG

| SMILES | IC50 [1] | EC50 (LNCaP) | EC50 (Lu1) | EC50 (A-431) | EC50 [2] | EC50 (SK-MEL-2) | EC50 (KB) | EC50 (Col2) | EC50 (ZR-75-1) | EC50 [3] | EC50 (HT) | EC50 [4] |
| --- | --- | --- | --- | --- | --- | --- | --- | --- | --- | --- | --- | --- |
| C=C(C)[C@@H]1CC[C@]2(CO)CC[C@]3(C)[C@H](CC[C@@H]4[C@@]5(C)CC[C@H](O)C(C)(C)[C@@H]5CC[C@]43C)[C@@H]12 [BETULIN] | 1 µg/mL | – | – | – | – | – | – | – | – | – | – | – |
| C=C(C)[C@@H]1CC[C@]2(C)CC[C@]3(C)[C@H](CC[C@@H]4[C@@]5(C)CC[C@H](O)C(C)(C)[C@@H]5CC[C@]43C)[C@@H]12 [LUPEOL] | 65 µg/mL | – | – | – | – | – | – | – | – | – | – | – |

Second part, led by results:

| IC50 [1] | SMILES | EC50 (LNCaP) | EC50 (Lu1) | EC50 (A-431) | EC50 [2] | EC50 (SK-MEL-2) | EC50 (KB) | EC50 (Col2) | EC50 (ZR-75-1) | EC50 [3] | EC50 (HT) | EC50 [4] |
| --- | --- | --- | --- | --- | --- | --- | --- | --- | --- | --- | --- | --- |
| > 100 µg/mL | C=C1C(=O)O[C@@H]2C[C@]3(C)CC[C@]4(C)[C@H](CC[C@@H]5[C@@]6(C)CCC(=O)C(C)(C)[C@@H]6CC[C@]54C)[C@H]3[C@H]12 [OCHRACEOLIDE A] | 13.4 µg/mL (≈ 29.6 µM) | 16.1 µg/mL (≈ 35.6 µM) | > 20 µg/mL | 7.9 µg/mL (≈ 17.5 µM) | > 20 µg/mL | > 20 µg/mL | > 20 µg/mL | 4.5 µg/mL (≈ 9.94 µM) | 17.2 µg/mL (≈ 38 µM) | 8.6 µg/mL (≈ 19 µM) | 6.7 µg/mL (≈ 14.8 µM) |
| > 100 µg/mL | CC1(C)C(=O)CC[C@]2(C)[C@H]3CC[C@@H]4[C@H]5[C@H]6[C@@H](C[C@]5(C)CC[C@@]4(C)[C@]3(C)CC[C@@H]12)OC(=O)[C@]61CO1 [20-EPI-OCHRACEOLIDE B] | – | – | – | – | – | – | – | – | – | – | – |
| > 100 µg/mL | C=C1C(=O)O[C@@H]2C[C@]3(C)CC[C@]4(C)[C@H](CC[C@@H]5[C@@]6(C)CC[C@H](O)C(C)(C)[C@@H]6CC[C@]54C)[C@H]3[C@H]12 [DIHYDRO OCHRACEOLIDE A] | 14.5 µg/mL (≈ 31.9 µM) | 8.9 µg/mL (≈ 19.6 µM) | 6.8 µg/mL (≈ 15 µM) | 10.2 µg/mL (≈ 22.4 µM) | > 20 µg/mL | > 20 µg/mL | 12.1 µg/mL (≈ 26.6 µM) | 3 µg/mL (≈ 6.6 µM) | > 20 µg/mL | 9.6 µg/mL (≈ 21.1 µM) | 9.1 µg/mL (≈ 20 µM) |
